Data: ChEMBL document CHEMBL5325448, “Design, synthesis and biological evaluation of phosphoroxy quinazoline derivatives as potential EGFRT790M/C797S inhibitors” (Bioorg Med Chem, 2023)
pIC50: −log10 of the molar value.

Experiments:
[1] = molecular target: Epidermal growth factor receptor (Homo sapiens, UniProt P00533, C797S/EX19DEL/T790M); experiment: Inhibition of EGFR Del19/T790M/C797S triple mutant (unknown origin) using TK as substrate incubated for 120 mins in presence of ATP by HTRF assay
Sequence of Epidermal growth factor receptor (Homo sapiens, UniProt P00533, C797S/EX19DEL/T790M) (P00533 whole entry, looked up, stated change not applied): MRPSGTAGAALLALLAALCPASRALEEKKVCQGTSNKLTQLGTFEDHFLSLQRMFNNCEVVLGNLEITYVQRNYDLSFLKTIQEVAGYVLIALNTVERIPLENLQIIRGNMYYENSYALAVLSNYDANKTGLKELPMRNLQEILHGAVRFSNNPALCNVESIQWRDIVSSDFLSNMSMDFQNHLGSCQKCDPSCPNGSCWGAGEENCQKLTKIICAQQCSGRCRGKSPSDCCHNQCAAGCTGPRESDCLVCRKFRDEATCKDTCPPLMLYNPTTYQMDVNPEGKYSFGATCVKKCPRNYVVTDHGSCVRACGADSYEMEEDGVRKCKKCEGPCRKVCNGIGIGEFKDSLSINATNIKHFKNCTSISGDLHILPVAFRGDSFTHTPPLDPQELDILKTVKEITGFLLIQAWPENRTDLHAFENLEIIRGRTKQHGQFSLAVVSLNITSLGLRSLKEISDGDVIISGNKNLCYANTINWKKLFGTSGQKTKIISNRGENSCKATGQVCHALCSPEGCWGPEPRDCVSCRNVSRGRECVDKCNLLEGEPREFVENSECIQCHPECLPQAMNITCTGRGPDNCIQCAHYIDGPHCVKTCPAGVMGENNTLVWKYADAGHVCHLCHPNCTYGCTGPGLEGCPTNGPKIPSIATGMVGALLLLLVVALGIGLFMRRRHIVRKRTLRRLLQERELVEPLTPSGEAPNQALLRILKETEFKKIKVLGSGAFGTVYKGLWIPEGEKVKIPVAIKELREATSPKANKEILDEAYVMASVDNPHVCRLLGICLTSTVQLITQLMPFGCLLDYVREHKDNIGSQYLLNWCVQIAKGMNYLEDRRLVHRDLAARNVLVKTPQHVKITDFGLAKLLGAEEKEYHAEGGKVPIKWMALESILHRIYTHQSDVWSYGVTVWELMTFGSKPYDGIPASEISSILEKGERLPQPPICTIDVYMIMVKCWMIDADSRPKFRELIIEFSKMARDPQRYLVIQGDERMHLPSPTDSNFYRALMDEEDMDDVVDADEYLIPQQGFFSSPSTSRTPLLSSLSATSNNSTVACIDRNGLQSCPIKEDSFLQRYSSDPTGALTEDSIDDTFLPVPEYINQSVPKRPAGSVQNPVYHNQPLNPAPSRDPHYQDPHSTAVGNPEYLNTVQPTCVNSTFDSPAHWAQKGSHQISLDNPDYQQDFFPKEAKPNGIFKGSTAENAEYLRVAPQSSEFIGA

[2] = Cytotoxicity against mouse Ba/F3 EGFR-Del19/T790M/C797S cells assessed as cell growth inhibition measured after 72 hrs by CellTiter-Glo luminescent assay; format: functional, cell-based
[3] = system: PC-9; experiment: Antitumor activity against human PC-9 cells harboring EGFR Del19/T790M/C797S triple mutant xenografted in NOD/SCID mouse assessed as tumor growth inhibition at 15 mg/kg, po administered once a day for 21 consecutive days and measured twice a week relative to control; format: functional; conditions: PC-9, 504 h, time 21 day, read-out: TGI
[4] = Antitumor activity against mouse Ba/F3 EGFR-Del19/T790M/C797S cells xenografted in BALB/c nude mouse assessed as tumor growth inhibition at 15 mg/kg, po administered once a day for 14 consecutive days and measured twice a week relative to control; format: functional; conditions: 336 h, time 14 day, read-out: TGI
[5] = system: PC-9; experiment: Antitumor activity against human PC-9 cells harboring EGFR Del19/T790M/C797S triple mutant xenografted in NOD/SCID mouse assessed as tumor growth inhibition at 30 mg/kg, po administered once a day for 21 consecutive days and measured twice a week relative to control; format: functional; conditions: PC-9, 504 h, time 21 day, read-out: TGI
[6] = Cmax in BALB/c mouse at 5 mg/kg, po measured upto 24 hrs by LC-MS/MS analysis; format: ADME, organism-based; design: dose 5 mg/kg, time < 24 hrs, route po; conditions: in vivo
[7] = MRT in BALB/c mouse at 5 mg/kg, po measured upto 24 hrs by LC-MS/MS analysis; format: ADME, organism-based; conditions: in vivo
[8] = Antitumor activity against mouse Ba/F3 EGFR-Del19/T790M/C797S cells xenografted in BALB/c nude mouse assessed as tumor growth inhibition at 30 mg/kg, po administered once a day for 14 consecutive days and measured twice a week relative to control; format: functional; conditions: 336 h, time 14 day, read-out: TGI
[9] = AUC (0 to t) in BALB/c mouse at 5 mg/kg, po measured upto 24 hrs by LC-MS/MS analysis; format: ADME, organism-based; design: time < 24 hrs, dose 5 mg/kg, route po; conditions: in vivo
[10] = AUC (0 to infinity) in BALB/c mouse at 5 mg/kg, po measured upto 24 hrs by LC/MS-MS analysis; format: ADME, organism-based; design: time < 24 hrs, dose 5 mg/kg, route po; conditions: in vivo
[11] = Half life in BALB/c mouse at 5 mg/kg, po measured upto 24 hrs by LC/MS-MS analysis; format: ADME, organism-based; conditions: in vivo
[12] = molecular target: Epidermal growth factor receptor (Homo sapiens, UniProt P00533, C797S/L858R/T790M); experiment: Inhibition of EGFR L858R/T790M/C797S triple mutant (unknown origin) using TK as substrate incubated for 120 mins in presence of ATP by HTRF assay
Sequence of Epidermal growth factor receptor (Homo sapiens, UniProt P00533, C797S/L858R/T790M) (P00533 25-1210 T790M/C797S/L858R limits assumed): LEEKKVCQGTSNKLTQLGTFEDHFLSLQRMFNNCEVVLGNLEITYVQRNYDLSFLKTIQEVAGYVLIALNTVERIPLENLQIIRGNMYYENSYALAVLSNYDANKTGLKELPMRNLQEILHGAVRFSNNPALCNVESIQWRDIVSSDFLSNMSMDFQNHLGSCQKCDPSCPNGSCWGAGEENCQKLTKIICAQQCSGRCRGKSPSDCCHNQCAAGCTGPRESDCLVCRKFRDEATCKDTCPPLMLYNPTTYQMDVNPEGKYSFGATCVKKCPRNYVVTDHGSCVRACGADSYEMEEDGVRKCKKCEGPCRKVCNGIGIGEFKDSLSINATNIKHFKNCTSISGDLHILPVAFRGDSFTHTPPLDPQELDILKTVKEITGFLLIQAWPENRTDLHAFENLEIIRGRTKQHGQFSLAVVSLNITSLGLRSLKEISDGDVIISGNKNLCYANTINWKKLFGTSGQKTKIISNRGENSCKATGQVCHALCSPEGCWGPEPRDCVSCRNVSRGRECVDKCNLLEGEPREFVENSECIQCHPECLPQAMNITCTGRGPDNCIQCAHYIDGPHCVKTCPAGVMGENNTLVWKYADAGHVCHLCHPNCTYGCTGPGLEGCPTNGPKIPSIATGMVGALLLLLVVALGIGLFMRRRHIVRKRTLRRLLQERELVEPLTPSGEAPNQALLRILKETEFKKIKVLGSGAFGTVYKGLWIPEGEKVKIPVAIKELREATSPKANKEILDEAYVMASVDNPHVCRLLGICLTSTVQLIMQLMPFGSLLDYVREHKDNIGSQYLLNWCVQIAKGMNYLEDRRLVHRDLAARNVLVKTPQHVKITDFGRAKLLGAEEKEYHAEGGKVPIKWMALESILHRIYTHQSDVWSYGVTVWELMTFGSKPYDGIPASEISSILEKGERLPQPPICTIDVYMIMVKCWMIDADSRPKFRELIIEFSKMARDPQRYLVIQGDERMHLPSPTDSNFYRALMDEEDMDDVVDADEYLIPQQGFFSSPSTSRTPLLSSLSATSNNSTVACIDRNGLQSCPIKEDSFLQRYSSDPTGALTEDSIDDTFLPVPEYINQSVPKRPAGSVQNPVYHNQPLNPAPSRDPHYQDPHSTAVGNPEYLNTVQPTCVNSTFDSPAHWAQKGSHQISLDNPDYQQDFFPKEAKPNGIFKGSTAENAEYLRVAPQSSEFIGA

[13] = molecular target: Epidermal growth factor receptor (Homo sapiens, UniProt P00533); experiment: Inhibition of wild type EGFR (unknown origin) using TK as substrate incubated for 120 mins in presence of ATP by HTRF assay
Sequence of Epidermal growth factor receptor (Homo sapiens, UniProt P00533) (P00533 whole entry): as the sequence (P00533 whole entry, looked up, stated change not applied) above

[14] = system: A-431; experiment: Cytotoxicity against human A-431 cells assessed as cell growth inhibition incubated for 72 hrs by CellTiter-Glo luminescent assay; format: functional, cell-based; conditions: A-431, 72 h

Work on `CCOC1CN(C2CCN(c3cc(OC)c(Nc4ncc(Br)c(Nc5ccc6nccnc6c5P(C)(C)=O)n4)cc3C)CC2)C1` yielded a pIC50 [1] of 9.19 and a pIC50 [2] of 7.54.

`CCc1cc(Nc2ncc(Br)c(Nc3ccc4nccnc4c3P(C)(C)=O)n2)c(OC)cc1N1CCC(N2CC(N(C)C)C2)CC1` gave a pIC50 [1] of 9.96 and a pIC50 [2] of 7.79.

For `COc1cc(N2CCC(N3CC(N(C)C)C3)CC2)c(C)cc1Nc1ncc(Br)c(Nc2ccc3nccnc3c2P(C)(C)=O)n1`, the inhibition in vivo at 15 mg/kg [3] was 21.6%, the inhibition in vivo at 15 mg/kg [4] was 48.4% and the pIC50 [1] was 10.22. It also gave an inhibition in vivo at 30 mg/kg [5] of 46.8%, a pIC50 [2] of 7.90 and a Cmax [6] of 1570 ng/mL. It also gave an MRT [7] of 6 h, an inhibition in vivo at 30 mg/kg [8] of 82.6% and an AUC(0-t) at 24 h [9] of 15400 ng·h/mL. It also gave an AUC(0-inf) [10] of 15600 ng·h/mL and a half-life [11] of 3.5 h.

`COc1cc(N2CCC(N3CC(C)(CO)C3)CC2)c(C)cc1Nc1ncc(Br)c(Nc2ccc3nccnc3c2P(C)(C)=O)n1` gave a pIC50 [12] of 9.82, a pIC50 [1] of 10.22 and a pIC50 [2] of 7.75.

For `COc1cc(N2CCC(N3CC(N(C)C)C3)CC2)c(C)cc1Nc1ncc(Cl)c(Nc2ccc3nccnc3c2P(C)(C)=O)n1`, the pIC50 [12] was 9.92, the pIC50 [1] was 9.60 and the pIC50 [2] was 7.79.

`COc1cc(N2CCC(N3CC(CC#N)C3)CC2)c(C)cc1Nc1ncc(Br)c(Nc2ccc3nccnc3c2P(C)(C)=O)n1` gave a pIC50 [12] of 9.92, a pIC50 [1] of 9.48 and a pIC50 [2] of 7.90. The Cmax [6] was 1270 ng/mL, the MRT [7] was 5.12 h and the pIC50 [13] was 6.34. The AUC(0-t) at 24 h [9] was 11200 ng·h/mL, the AUC(0-inf) [10] was 11200 ng·h/mL and the half-life [11] was 3.1 h.

With `COc1cc(N2CCC(N3CC(C(C)(C)O)C3)CC2)c(C)cc1Nc1ncc(Br)c(Nc2ccc3nccnc3c2P(C)(C)=O)n1` the pIC50 [12] was 9.82, the pIC50 [1] was 10.15 and the pIC50 [2] was 7.74.

`COc1cc(N2CCC(N3CC(F)(CO)C3)CC2)c(C)cc1Nc1ncc(Br)c(Nc2ccc3nccnc3c2P(C)(C)=O)n1` showed a pIC50 [12] of 10.00, a pIC50 [14] of 6.09 and a pIC50 [1] of 9.89. It also gave a pIC50 [2] of 7.73, a Cmax [6] of 1730 ng/mL and an MRT [7] of 6.3 h. The pIC50 [13] was < 6.30, the AUC(0-t) at 24 h [9] was 16900 ng·h/mL and the AUC(0-inf) [10] was 17000 ng·h/mL. For the same compound, the half-life [11] was 3.7 h.

`CCc1cc(Nc2ncc(Cl)c(Nc3ccc4nccnc4c3P(C)(C)=O)n2)c(OC)cc1N1CCC(N2CC(N(C)C)C2)CC1` showed a pIC50 [12] of 9.40, a pIC50 [1] of 9.21 and a pIC50 [2] of 7.53. For the same compound, the pIC50 [13] was < 6.30.

In the case of `COCC1(C)CN(C2CCN(c3cc(OC)c(Nc4ncc(Br)c(Nc5ccc6nccnc6c5P(C)(C)=O)n4)cc3C)CC2)C1`, the pIC50 [12] was 9.09, the pIC50 [1] was 9.52 and the pIC50 [2] was 7.65. The pIC50 [13] was < 6.30.

`COc1cc(N2CCC(N3C[C@H]4COC[C@H]4C3)CC2)c(C)cc1Nc1ncc(Br)c(Nc2ccc3nccnc3c2P(C)(C)=O)n1` gave a pIC50 [12] of 9.92, a pIC50 [14] of 6.37 and a pIC50 [2] of 7.96. The Cmax [6] was 1360 ng/mL, the MRT [7] was 5.6 h and the AUC(0-t) at 24 h [9] was 11200 ng·h/mL. It also gave an AUC(0-inf) [10] of 11200 ng·h/mL and a half-life [11] of 3.3 h.

`COc1cc(N2CCC(N3CCN(C(C)=O)CC3)CC2)c(C)cc1Nc1ncc(Br)c(Nc2ccc3nccnc3c2P(C)(C)=O)n1` showed a pIC50 [12] of 9.92, a pIC50 [14] of 6.24 and a pIC50 [1] of 10.15. The pIC50 [2] was 7.75 and the pIC50 [13] was 6.30.

`CCc1cc(Nc2ncc(C(F)(F)F)c(Nc3ccc4nccnc4c3P(C)(C)=O)n2)c(OC)cc1N1CCC(N2CC(N(C)C)C2)CC1` gave a pIC50 [14] of 6.26 and a pIC50 [2] of 7.27.

`COc1cc(N2CCC(N3CC[C@@H](N(C)C)C3)CC2)c(C)cc1Nc1ncc(Br)c(Nc2ccc3nccnc3c2P(C)(C)=O)n1` gave a pIC50 [12] of 9.89 and a pIC50 [2] of 8.05.

Work on `COc1cc(N2CCC(N3CC(N(C)C)C3)CC2)c(C)cc1Nc1ncc(SC)c(Nc2ccc3nccnc3c2P(C)(C)=O)n1` yielded a pIC50 [12] of 10.30, a pIC50 [1] of 9.41 and a pIC50 [2] of 7.71.

In the case of `COCC1CN(C2CCN(c3cc(OC)c(Nc4ncc(Br)c(Nc5ccc6nccnc6c5P(C)(C)=O)n4)cc3C)CC2)C1`, the pIC50 [12] was 10.22, the pIC50 [1] was 9.16 and the pIC50 [2] was 7.82.

`COc1cc(N2CCC(N3CC(CO)C3)CC2)c(C)cc1Nc1ncc(Br)c(Nc2ccc3nccnc3c2P(C)(C)=O)n1` gave a pIC50 [12] of 9.47, a pIC50 [1] of 9.24 and a pIC50 [2] of 7.39. For the same compound, the pIC50 [13] was 6.23.

For `COc1cc(N2CCC(N(C)CCN(C)C)CC2)c(C)cc1Nc1ncc(Br)c(Nc2ccc3nccnc3c2P(C)(C)=O)n1`, the pIC50 [12] was 9.82, the pIC50 [14] was 6.39 and the pIC50 [1] was 10.22. It also gave a pIC50 [2] of 7.80.

`COc1cc(N2CCC(N3CCN(C)CC3)CC2)ccc1Nc1ncc(Cl)c(Nc2ccccc2P(C)(C)=O)n1` [BRIGATINIB] gave a pIC50 [2] of 6.36, a Cmax [6] of 927 ng/mL and an AUC(0-t) at 24 h [9] of 6490 ng·h/mL. It also gave an AUC(0-inf) [10] of 6500 ng·h/mL and a half-life [11] of 2.8 h.
